Experiment: Ratio of drug level in brain to plasma in Sprague-Dawley rat by HPLC and MS-MS method
Type: ADME, cell-free
Settings: read-out: BPR

Kp	SMILES
< 0.5	C[C@@H](Oc1nnc(-c2cn[nH]c(=O)c2)n1C)c1cc(-c2cccc(Cl)c2)on1
< 0.5	C[C@@H](Oc1nnc(-c2ccn(C)c(=O)c2)n1C)c1cc(-c2cccc(Cl)c2)on1
< 0.5	C[C@@H](Oc1nnc(-c2cc[nH]c(=O)c2)n1C)c1noc(-c2cccc(Cl)c2)n1
< 0.5	C[C@@H](Oc1nnc(-c2cc[nH]c(=O)c2)n1C)c1nnn(-c2cccc(Cl)c2)n1
< 0.5	Cc1cccc(-c2cc([C@@H](C)Oc3nnc(-c4cn[nH]c(=O)c4)n3C)no2)c1
< 0.5	Cn1c(OCc2cc(-c3cccc(Cl)c3)on2)nnc1-c1cc[nH]c(=O)c1

More lines, now with the values behind:

SMILES	Kp
Cc1cccc(-n2nnc([C@@H](C)Oc3nnc(-c4cn[nH]c(=O)c4)n3C)n2)c1	< 0.5
C[C@@H](Oc1nnc(-c2cn[nH]c(=O)c2)n1C)c1nnn(-c2cccc(Cl)c2)n1	< 0.5
C[C@@H](Oc1nnc(-c2cn[nH]c(=O)c2)n1C)c1noc(-c2cccc(Cl)c2)n1	< 0.5
C[C@@H](Oc1nnc(-c2ccn(C)c(=O)c2)n1C)c1noc(-c2cccc(Cl)c2)n1	< 0.5

Reference: ChEMBL document CHEMBL3880408, “MgluR5 modulators” (2008)
